The subject of this experiment is HeLa cells. Briefly: Exposure of dasatinib-modified particles from endocytic vesicles to cytoplasm, seen as co-localization with EGFP-ABL1 fluorescence. It counts as cell-based. The conditions noted are these: HeLa cells transfected with EGFP-ABL1 with dasatinib-particles; cells fixed by the additive, not observed in a living state.
From the text: In addition, ABL1 (GenBank Acc. No. NM—198291) which binds to dasatinib was used for another linker constituting a mediator.
EGFP-ABL1 expression vector was produced by a known method (Sambrook & Russell, 2001, Molecular Cloning, Cold Spring Harbor Laboratory Press). After HeLa cells were subcultured to 6,000 cells/well on a 96-well plate, the expression vector DNA was transfected into a cell as mentioned in Example 1.
The particles modified with dasatinib were introduced into the cell transfected with DNA in the following. The cultured HeLa cells were treated with the modified particles according to the following processes:
1) Streptavidin-magnetic particles were mixed with dasatinib-biotin and the mixture was allowed to be reacted with each other. As a result, the particles modified with dasatinib were prepared;
In this embodiment, Olympus fluorescence microscope, FV1000, equipped with the object lens of Uplan Apo 40×/0.85 was used to obtain transmitted images and fluorescent images in the cells.
With `CCO` [ethanol], the “function as a cytoplasm exposure additive (exposure of particles to cytoplasm from endocytic vesicles)” value (“function” for short) is “exposed the particles to cytoplasm from endocytic vesicles effectively”.

For `CO` [methanol], the “function” value is “exposed the particles to cytoplasm from endocytic vesicles effectively”.

On to paraformaldehyde, for which the “function” value is “exposed the particles to cytoplasm from endocytic vesicles effectively”.

Values taken from US20110223666A1, “CYTOPLASM EXPOSURE ADDITIVE AND METHOD FOR EXPOSING PARTICLES DELIVERED INTO CELL TO CYTOPLASM FROM ENDOCYTIC VESICLES IN INTACT CELL” (MEDISCOV INC., priority 2008, published 2011).
